Laboratory results reported in patent US20200255492A1, “LEPTIN PEPTIDES AND THEIR USE FOR TREATING NEUROLOGICAL DISORDERS” (UNIVERSITY OF DUNDEE, priority 2017, published 2020).

Tests used:
[1] = test system: mice; experiment: Murine episodic-like memory test with hexamers; assay type: in vivo; settings: IP 7.8 nM/ml; tested 45 minutes post-injection; vs saline
Description: FIG. 24. Bar chart of the quantification of the fluorescent signal per cell following thioflavin S staining of neuronal cultures 96 hours after seeding with 1 μM Amyloid (Ab1-42). Cultures were established in triplicate on 3 separate occasions and statistical significance relative to control untreated cultures is denoted by *** where P<0.001 (A). […] 3 groups of mice (n=8 per group) were IP injected with saline (control) on 7.8 nM/ml leptin116-121 or […]. Memory performance was tested 45 minutes post-injection. Statistical significance relative to saline-injected animals is denoted by * where P<0.05. […] Leptin levels were determined by ELISA, using a commercially-supplied kit (Sigma, UK) and using blood serum harvested 24 hours post injection.
Further to this we have evaluated the effects of these hexamer peptides on episodic memory in mice. There is an 8 fold increase in episodic memory performance following treatment with leptin116-121 or […] (FIG. 24B). This implies that both leptin hexamers enhance the ability of the mice to recognise the presence of a novel object within the test arena.

[2] = test system: leptin-deficient ob/ob mice; settings: cited from earlier work
[3] = test system: C57/BL6 mice; experiment: Object-place-context (OPC) recognition task, episodic-like memory; assay type: in vivo; settings: 100 μl IP of 7.8 nM/ml 30 min prior to testing
Description: FIG. 7A, FIG. 7B, FIG. 7C and FIG. 7D show Leptin (116-130) enhances episodic-like memory. FIG. 7A: object-place-context task used to assess episodic-like memory. There are 2 sample phases in which mice are exposed to different copies of 2 different objects (star and hexagon) and allowed to explore for 3 min. In the test phase they see 2 new copies of 1 of the objects. The arrow points to the object that has not been previously seen in that place within that context. FIG. 7B: mean±SEM discrimination index for the 3 groups. *P<0.05. FIG. 7C: total exploration time in the test phase is not different between groups. FIG. 7D: exploration of the novel and familiar objects in the test phase; treatment with leptin or the leptin fragment (116-130) enhanced performance on the episodic-like memory test.
To further assess its therapeutic potential we next asked if this fragment has similar cognitive enhancing properties to the whole leptin molecule. Previous studies indicate that leptin enhances hippocampal-dependent memory (Oomura et al. 2006; Farr et al. 2006), whereas resistance to lep-tin results in impaired spatial memory (Li et al. 2002). We used the object-place-context (OPC) recognition task which models human episodic memory, the first cognitive process to be compromised in the early stages of AD (Swainson et al. 2001). […]

[4] = test system: SH-SY5Y neural cells; experiment: Serum/glucose deprivation (in vitro model of stroke), crystal violet assay; assay type: cell-based, human; settings: 96 hours; range of concentrations
Description: Cultures were established on 7 separate occasions in quadruplicate and starved of serum and glucose when they reached 70% confluence. Neural cell viability in response to a range of concentrations of leptin116-130 was determined 96 hours later using a crystal violet assay to measure cell number. Statistical significance relative to serum/glucose deprivation is denoted with ** where P<0.01 and *** where P<0.001. Photomicrographs of serum/glucose deprived cultures and of serum/glucose deprived cultures treated with 0.1 nM leptin116-130 (B) further highlight the enhanced cell number in the presence of leptin116-130. Scale bar represents 25 μm. […]
The concentration of lactate dehydrogenase (LDH) in the culture medium or the mitochondrial activity within cells was used to monitor the level of cell death, as previously (Oldreive and Doherty 2010). […] Plates were washed 5-10 times in dH2O and cells solubilised in 100 μl dimethyl sulfoxide (DMSO) before reading the absorbance on a Biohit BP100 plate reader. For all assays, data is expressed as percentage relative to control, untreated wells to normalize for differences in plating density between individual experiments.

Row | Substance | increase in episodic memory performance [1] [fold] | body weight [2] | food intake [2] | performance (discrimination index) in episodic-like OPC task [3] | survival following serum/glucose deprivation [4]
1 | CSLPQT (listed as Mus musculus) [leptin (117-122)] | 8 |  |  |  | 
2 | SCSLPQ (listed as Mus musculus) [leptin (116-121)] | 8 | reduced food intake and body weight | reduced food intake and body weight |  | 
3 | SCSLPQTSGLQKPES (listed as Mus musculus) [leptin (116-130)] |  | reduced food intake and body weight | reduced food intake and body weight | enhanced performance on the task relative to the control group | significant neuroprotection
4 | leptin: the metabolic hormone leptin, whole (full length) leptin molecule; human leptin from Sigma in SH-SY5Y work |  |  |  | enhanced performance on the task relative to the control group | 
